Data from BindingDB's records for doi:10.1016/j.bmcl.2012.10.040 (Pfizer, 2013).

Key:
[1] = biological target: T1, Prostaglandin G/H synthase 2 (Homo sapiens, UniProt P35354); assay: Inhibition of COX2 in human whole blood assessed as LPS-induced PGE2 production incubated 15 mins prior to LPS challenge measured after 24 hrs by EIA
T1 sequence (P35354 whole entry): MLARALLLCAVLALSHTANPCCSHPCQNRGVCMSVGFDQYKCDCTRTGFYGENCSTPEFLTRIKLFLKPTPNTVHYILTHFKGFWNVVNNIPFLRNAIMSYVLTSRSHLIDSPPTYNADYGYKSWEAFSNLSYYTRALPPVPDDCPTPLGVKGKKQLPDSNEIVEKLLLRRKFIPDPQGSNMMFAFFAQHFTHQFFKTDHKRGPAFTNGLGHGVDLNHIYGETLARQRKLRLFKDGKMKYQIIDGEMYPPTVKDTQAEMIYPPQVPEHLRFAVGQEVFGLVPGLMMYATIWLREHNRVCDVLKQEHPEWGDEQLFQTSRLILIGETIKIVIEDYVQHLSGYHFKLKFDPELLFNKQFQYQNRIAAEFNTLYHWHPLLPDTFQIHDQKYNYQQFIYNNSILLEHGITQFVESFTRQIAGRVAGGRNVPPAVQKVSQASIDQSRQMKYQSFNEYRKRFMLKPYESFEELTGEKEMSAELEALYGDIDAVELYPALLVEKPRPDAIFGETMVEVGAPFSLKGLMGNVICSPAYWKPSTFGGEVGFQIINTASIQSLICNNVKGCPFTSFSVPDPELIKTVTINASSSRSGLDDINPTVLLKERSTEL

[2] = biological target: T2, Prostaglandin G/H synthase 2 (Canis lupus familiaris, UniProt Q8SPQ9); assay: Inhibition of COX2 in dog whole blood assessed as LPS-induced PGE2 production
T2 sequence (Q8SPQ9 whole entry): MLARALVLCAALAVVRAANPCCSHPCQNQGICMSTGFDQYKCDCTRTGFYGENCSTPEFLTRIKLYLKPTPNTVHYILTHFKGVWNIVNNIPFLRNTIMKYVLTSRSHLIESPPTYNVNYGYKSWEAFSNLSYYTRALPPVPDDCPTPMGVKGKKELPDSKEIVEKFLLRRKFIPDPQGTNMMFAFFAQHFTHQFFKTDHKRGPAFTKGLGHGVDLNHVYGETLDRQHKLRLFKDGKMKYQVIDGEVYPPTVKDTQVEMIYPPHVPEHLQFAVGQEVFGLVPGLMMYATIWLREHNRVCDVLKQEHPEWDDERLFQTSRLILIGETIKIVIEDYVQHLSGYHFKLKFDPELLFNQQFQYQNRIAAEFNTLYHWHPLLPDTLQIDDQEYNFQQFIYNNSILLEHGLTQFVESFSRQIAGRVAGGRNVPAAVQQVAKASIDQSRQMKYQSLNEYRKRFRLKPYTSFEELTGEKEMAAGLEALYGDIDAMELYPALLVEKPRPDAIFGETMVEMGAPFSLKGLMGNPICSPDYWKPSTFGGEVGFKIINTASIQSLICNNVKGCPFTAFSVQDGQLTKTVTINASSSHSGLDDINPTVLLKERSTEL

[3] = biological target: T1, Prostaglandin G/H synthase 2; assay: Inhibition of COX2 in human fetal fibroblast assessed as inhibition of IL-1beta-mediated PGE2 production after 50 mins by ELISA
[4] = biological target: T3, Prostaglandin G/H synthase 2 (Rattus norvegicus, UniProt P35355); assay: Inhibition of COX2 in rat synovial fibroblast assessed as inhibition of IL-1-mediated PGE2 production
T3 sequence (P35355 whole entry): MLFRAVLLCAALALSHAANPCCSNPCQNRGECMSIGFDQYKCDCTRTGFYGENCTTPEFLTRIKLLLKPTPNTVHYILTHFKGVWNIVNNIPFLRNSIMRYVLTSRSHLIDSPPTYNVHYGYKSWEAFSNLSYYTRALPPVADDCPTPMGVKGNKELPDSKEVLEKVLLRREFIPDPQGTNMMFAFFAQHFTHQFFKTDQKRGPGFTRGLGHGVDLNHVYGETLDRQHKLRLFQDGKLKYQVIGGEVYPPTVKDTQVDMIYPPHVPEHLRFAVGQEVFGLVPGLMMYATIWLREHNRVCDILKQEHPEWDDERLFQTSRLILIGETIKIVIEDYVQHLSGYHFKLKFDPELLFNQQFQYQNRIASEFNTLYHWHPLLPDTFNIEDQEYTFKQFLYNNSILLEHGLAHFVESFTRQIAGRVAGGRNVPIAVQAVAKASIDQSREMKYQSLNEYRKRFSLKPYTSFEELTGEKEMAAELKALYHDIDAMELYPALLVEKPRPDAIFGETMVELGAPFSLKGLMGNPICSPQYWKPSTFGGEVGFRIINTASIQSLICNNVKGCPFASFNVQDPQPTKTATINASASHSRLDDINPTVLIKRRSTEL

[5] = biological target: T1, Prostaglandin G/H synthase 2; assay: Inhibition of COX2 in human whole blood assessed as PGE2 level incubated for 15 mins prior to substrate addition measured after 10 mins by ELISA

IC50 [1] [nM] | IC50 [2] [nM] | IC50 [3] [nM] | IC50 [4] [nM] | IC50 [5] [nM] | Structure (SMILES)
934 | 1230 | 35 | > 30000 | 7560 | O=C(N[C@H]1CCC[C@@H]1OCc1ccccc1)C1CCN(c2nc3cc(Cl)ccc3o2)CC1
– | – | 1010 | – | – | O=C(NC1CCCC1)C1CCN(c2nc3cc(Cl)ccc3o2)CC1
– | – | 296 | – | 27400 | O=C(N[C@@H]1CCC[C@H]1OCc1ccccc1)C1CCN(c2nc3cc(Cl)ccc3o2)CC1
– | – | 618 | – | 76600 | O=C(N[C@H]1CCC[C@H]1OCc1ccccc1)C1CCN(c2nc3cc(Cl)ccc3o2)CC1
– | – | 85 | – | > 33600 | O=C(N[C@H]1CCC[C@@H]1COc1ccccc1)C1CCN(c2nc3cc(Cl)ccc3o2)CC1
– | – | 1260 | – | 11100 | O=C(N[C@H]1CC[C@@H](CO)CC1)C1CCN(c2nc3cc(Cl)ccc3o2)CC1
– | – | > 10000 | – | – | O=C(N[C@H]1CC[C@H](CO)CC1)C1CCN(c2nc3cc(Cl)ccc3o2)CC1
